The source of these data is paper PMC8465649, “Semaphorin 3A—Glycosaminoglycans Interaction as Therapeutic Target for Axonal Regeneration” (Pharmaceuticals, 2021).

A short description of data set [1]: NMR competition (WaterLOGSY / spin-lock filtered 1H): displacement of FS2/FS3 peptides from heparin agarose resin. The settings on record: pH 7.5; for displacement of FS3 peptide from heparin agarose resin: spin-lock filtered 1D 1H NMR, 1 mM peptide, 1 mM peptoid. Format: binding. The method, then:
NMR competition experiments involved the acquisition of 1D-^1H WaterLOGSY or spin-lock filtered NMR spectra. Thus, FS2 peptide is displaced from heparin agarose resin by CSIC02 (1:1 peptoid/FS2, both 1 mM), but not by CSIC03 (Figure S15). […] We reasoned that if CSIC02 was able to interact with GAG and displace FS2/FS3 basic peptides, it may also interfere with SCTWT–heparin interaction. To investigate if CSIC02 could displace SCTWT from heparin dp14 and to define the SCTWT residues affected, 2D NMR ^1H-^15N HSQC CSP experiments were used. Figure 8a illustrates the chemical shift effects of CSIC02 addition to a sample of SCTWT containing dp14 heparin. […] In Figure 8b, we display the chemical shift perturbation of SCTWT NMR spectra in the presence of dp14 and CSIC02. Thus, as the two CSP plots in Figure 4b and Figure 8b were calculated using as reference SCTWT alone in solution, we can compare them directly. […] Moreover, splitting of signals for some residues (R733, R734, and Q735 in the first GAG-binding region) was observed (Figure 8c). This observation is compatible with the presence of different species in slow chemical exchange in solution, with partial detachment of SCTWT from heparin. The amount of CSIC02 used in these experiments can be rationalized considering that the SCTWT has ca. 12 positive charges at neutral pH (Figure S18), while CSIC02 is tricationic. Since the binding is mediated by ionic polar interactions, a large excess of CSIC02 is needed to counterbalance the SCTWT-dp14 binding.
Next, 1D ^1H T1ρ relaxation filtered and WaterLOGSY NMR experiments were acquired at 25 °C on a 500-MHz spectrometer (Varian Inova; Agilent Technologies, Santa Clara, CA, USA) equipped with an AutoX inverse double-resonance probe with a z-shielded pulsed-field gradient coil. The samples were prepared in a 5-mm Wilmad NMR 528-PP tubes with 10 mM Tris-d11 (for peptide/GAG samples) and 150 mM NaCl dissolved in 90% H2O/10% D2O at pH 7.5. All spectra were obtained with a sweep width of 8 kHz and 16,384 acquired data points. The experiments were recorded using the standard pulse sequence in the (WLOGSY_ES) Chempack library, with excitation sculpting to suppress water resonances. For Water-LOGSY experiments, the first water-selective 180° pulse was 25 ms long. The spectra were acquired with 1200 transients and a spin-lock pulse of 50 ms at 3.7 kHz. To phase Water-LOGSY spectra correctly, it is necessary to use an internal reference compound. In our case, the reference is the residual ethanol absorbed/bonded in heparin-agarose resin (this interaction was previously confirmed with T1ρ filtered experiments), which appears as a positively phased signal. […]

A further data set deals with Sema3A. On the set-up: method as in PMID 27028639. The conditions noted are these: cited from earlier work.
Data set [2] in a line: Potentiometric titration (protonation state). Format: physicochemical. The conditions noted are these: 25 °C, 0.15 M NaCl. On the procedure:
UV absorbance was measured using a SpectraMax M5 spectrophotometer (Molecular Devices, Sunnyvale, CA, USA). The experiments were performed with a 10 μM methylene blue (MB) solution in 5 mM Tris-HCl buffer at pH 7.5, to which increasing amounts of heparin were added to saturation of the MB dye. For the competition assays, solutions of MB and heparin at fixed concentrations were titrated with increasing amounts of SICHI or CSIC02–04 peptoids. Then, the relative increase in absorbance at 665 nm, due to release of MB from the MB–heparin complex when adding either SICHI or CSIC02–04 to the cuvette, can be plotted vs. the charge ratio considering their respective concentrations and that all the peptoids have three positive charges, and heparin has four negative charges per disaccharide unit. With this information, the charge excess for 50% of displacement of the MB dye (CE50) for each compound can be calculated for comparison. Potentiometric titrations were carried out in a reaction vessel thermostated with a water bath at 25.0 ± 0.1 °C under nitrogen atmosphere, and 0.15 M NaCl was used as the supporting electrolyte. The titrant was delivered by a precision microburette. The potentiometric measurements were made with a pH-mV meter. The reference electrode was an Ag/AgCl electrode in saturated KCl solution. The acquisition of the emf data was performed with the computer program Tiamo 2.3.1. […]

Data set [3] relates to Sema3A chemorepulsive activity. The arrangement: method as in PMID 19615921. The conditions noted are these: cited from earlier work.
A further data set deals with Nrp1. On the set-up: method as in PMID 27028639. The conditions noted are these: cited from earlier work.
Data set [4] is described as follows: SPR binding to immobilized biotinylated heparin. The conditions noted are these: Table S3. The method, then: (§1) The interaction between Sema3A basic tail and GAGs was analyzed using several methods: chromatographic elution as a function of NaCl concentration based on affinity to a heparin sepharose column, surface plasmon resonance (SPR), NMR [52], and molecular dynamics simulations. Firstly, we observed that SCTWT binds to a heparin-Sepharose column and the protein is only released at about 1M NaCl (>50% of buffer B, Figure 3c), similar to the widely reported antithrombin–heparin interaction, indicating a SCTWT-heparin high-affinity, in the 10^−7–10^−9 M range [54]. Next, SPR measurements were performed to characterize protein–heparin binding kinetics. […]
All SPR experiments were performed on a Biacore T-100 instrument (Cytiva, formally GE Healthcare, Marlborough, MA, USA) in HBS-T buffer (10 mM HEPES, 150 mM NaCl, 0.05% Tween-20, pH 7.5) at 25 °C. […] The SPR experiments were performed in duplicate and the dissociation constant (Kd) values and binding levels are expressed as the mean and standard deviation from the individual experiments. […]
A general note: In SPR one partner is held on a chip, and binding of the other changes the refractive index at the surface.

Data set [5] in a line: Heparin affinity chromatography (NaCl gradient elution). The class given is binding. On the procedure:
Figure 3 SPR sensorgrams of increasing amounts (0 to 1 μM) of the SCTWT construct flown over (HBS-T buffer) (a) immobilized biotinylated heparin (350 RU) (b) CD Spectra of 5 μM Sema3A C-terminal region in the absence (blue) and the presence of 1 μM UFH (orange), measured at pH 5.5 in 10 mM NaP. […] SCTWT was loaded onto a HiTrap Heparin column equilibrated with […] (pH 7.5), and eluted with a linear gradient to 2 M NaCl. Left ordinate axis, absorbance; righ ordinate axis, % NaCl (% B).
A prepacked 1-mL HiTrap Heparin HP affinity column (GE Healthcare) was used on a AKTA purifier system to perform heparin affinity chromatography. Then, 100 μL of SCT samples at ~100 μM were injected and run at 1 mL/min in a linear gradient with buffer A = 10 mM Tris-HCl, pH = 7.5 and buffer B = 10 mM Tris-HCl, 2M NaCl, pH = 7.5.

Data set [6] is described as follows: SPR binding to immobilized biotinylated CS-A. The method, then:
as §1
All SPR experiments were performed on a Biacore T-100 instrument (Cytiva, formally GE Healthcare, Marlborough, MA, USA) in HBS-T buffer (10 mM HEPES, 150 mM NaCl, 0.05% Tween-20, pH 7.5) at 25 °C. […] The SPR experiments were performed in duplicate and the dissociation constant (Kd) values and binding levels are expressed as the mean and standard deviation from the individual experiments.

Data set [7] concerns the molecule itself. The data set is described as follows: 1H-15N NMR spectra; 1H-15N NMR spectra of LCTWT acquired without and with reducing agent TCEP; monomer and dimer.

Ends that are not written are not given here.

On to `CCN(CC)CCNCC(=O)N(CCN1CCCC1)CC(=O)NCCC1CCCN1C` (stereo not drawn) [CSIC03], for which the “displacement of FS2 peptide from heparin agarose resin” value in [1] (WaterLOGSY, 1:1 peptoid/FS2, both 1 mM) is reported as “not”. Besides, the “displacement of FS3 peptide from heparin agarose resin” value in data set [1] is reported as “incapable to displace”.
On to `CCN(CC)CCN(CC(=O)N(CCN1CCCC1)CC(=O)NCCC1CCCN1C)C(=O)OCc1ccccc1` (stereo not drawn) [CSIC04], for which the “displacement of FS3 peptide from heparin agarose resin” value in data set [1] is “incapable to displace”.
As to `CCN(CC)CCNCC(=O)N(CCN1CCCC1)CC(=O)N(CCC1CCCN1C)CC(N)=O` (stereo not drawn) [SICHI], the “binding to Sema3A” value with Sema3A was “neither Sema3A or Nrp1 bind”. Also, the “protonation state at neutral pH” value in [2] is on record as “triprotonated”. Also, the “in vitro effect on Sema3A chemorepulsive activity” value in [3] is “inhibition”. In addition, the “binding to Nrp1” value with Nrp1 was “neither Sema3A or Nrp1 bind”.
Turning to “FS2: Sema3A C-terminal peptide 725-736, VWKRDRKQRRQR”, the “fold stronger affinity to heparin compared to NFS3 peptide” value in [4] is given as 60 fold.
Turning to “LCTWT: recombinant Sema3A C-terminal construct 716-771 incorporating the cysteine (NTMDEFCEQVWKRDRKQRRQRPGHTPGNSNKWKHLQENKKGRNRRTHEFERAPRSV; also: post-translational modification of the N-terminus, kind not given here)”, in [5] (5 mM DTT), the “NaCl concentration at elution under reducing conditions” value was ~ 0.92 M NaCl. Besides, the “NaCl concentration at elution peak (single or major peak)” value in data set [5] (linear gradient to 2 M NaCl, Tris-HCl pH 7.5) is ~ 1.12 M NaCl. Besides, in [5] (linear gradient to 2 M NaCl, minor peak (monomeric form)), the “NaCl concentration at minor elution peak” value is reported as ~ 0.92 M NaCl.
On to “SCTRR/QH: SCT construct bearing two mutations, R730Q and R733H (VWKRDQKQHRQRPGHTPGNSNKWKHLQENKKGRNRRTHEFERAPRSV; UniProt Q14563 725-771, looked up, variant R730Q R733H)”, for which, in [6] (immobilized biotinylated CS-A), the “binding to CS-A” value was “completely abrogated”. The “elution of the mutated protein relative to SCTWT” value in data set [5] (heparin affinity chromatography) was “slightly earlier elution”.
Consider “SCTWT: recombinant Sema3A C-terminal polybasic tail construct, residues 725–771 (VWKRDRKQRRQRPGHTPGNSNKWKHLQENKKGRNRRTHEFERAPRSV; UniProt Q14563 725-771, looked up, fragment)”, for which, in data set [6] (comparison of heparin and CS-A chips), the “affinity for heparin versus CS-A” value was “higher affinity to heparin than to CS-A”.

B1: recombinant Sema3A C-terminal construct incorporating the cysteine (LCTWT, 716-771) (domain or fragment, human, UniProt Q14563 716-771, looked up)
chain: NTMDEFCEQVWKRDRKQRRQRPGHTPGNSNKWKHLQENKKGRNRRTHEFERAPRSV
modifications: also: post-translational modification of the N-terminus, kind not given here
notes: Semaphorin 3A (Sema3A), human, C-terminal region 716-771 with the cysteine (Cys722 as printed) between the Ig domain and the basic tail; The methods say that the SCT constructs were made without any fusion tag in E. coli BL21 (DE3) and purified by cation exchange and reverse phase; source: recombinant
In the case of B1, the binding result in data set [7] is reported as “binds”.
